{"source": "patent US8835469B2", "about": "(Cadila Healthcare Limited, priority 2009, dated 2014)", "target": "T1, glucokinase (GK) enzyme (Homo sapiens, UniProt P35557)", "T1 sequence (P35557 1-465)": "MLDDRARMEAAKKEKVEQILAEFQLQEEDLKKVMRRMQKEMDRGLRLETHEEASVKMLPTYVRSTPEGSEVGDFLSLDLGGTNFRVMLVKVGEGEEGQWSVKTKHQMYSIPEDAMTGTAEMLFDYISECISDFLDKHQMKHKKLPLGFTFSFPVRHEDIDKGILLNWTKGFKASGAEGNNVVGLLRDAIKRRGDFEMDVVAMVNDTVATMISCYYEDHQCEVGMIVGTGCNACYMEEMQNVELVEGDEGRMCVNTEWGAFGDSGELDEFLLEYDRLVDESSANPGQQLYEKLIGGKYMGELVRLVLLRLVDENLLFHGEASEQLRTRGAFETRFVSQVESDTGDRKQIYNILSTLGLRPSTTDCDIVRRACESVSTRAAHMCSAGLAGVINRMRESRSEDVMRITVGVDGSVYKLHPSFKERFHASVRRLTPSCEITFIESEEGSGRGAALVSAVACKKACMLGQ", "assay": "In-vitro glucokinase (GK) activation assay (coupled with glucose-6-phosphate dehydrogenase, absorbance at 340)", "format": "biochemical", "conditions": "glucose 2.5 mM, read-out: % of GK activity wrt DMSO; for activity at 0.1 µM: 0.1 uM compound; for activity at 1 µM: 1 uM compound; for activity at 5 µM: 5 uM compound; for activity at 10 µM: 10 uM compound", "procedure": "The compound of the invention was incubated with glucokinase (GK) enzyme (0.2 units) for 10 minutes in assay buffer at 26° C. After incubation, addition of glucose-6-phosphate dehydrogenase (2.5 units), ATP (1 mM) and glucose (2.5 mM). Absorbance is measured at 340 nm for 15 minutes with 10 second interval using UV transparent plate in kinetic mode on Spectramax-190 at 30° C.", "data": [{"smiles": "Cc1nnc(-c2ccc(Oc3cc(OC4CCN(C)C4=O)cc(C(=O)Nc4nc(CCN5CCOCC5=O)cs4)c3)cc2)o1", "note": "(stereo not drawn) [Example 5, 3-(4-(5-Methyl-1,3,4-oxadiazol-2-yl)phenoxy)-5-((1-methyl-2-oxopyrrolidin-3-yl)oxy)-N-(4-(2-(3-oxomorpholino)ethyl)thiazol-2-yl)benzamide]", "values": [{"measurement": "activity at 0.1 µM", "value": 114, "unit": "%"}, {"measurement": "activity at 1 µM", "value": 159, "unit": "%"}, {"measurement": "activity at 5 µM", "value": 287, "unit": "%"}, {"measurement": "activity at 10 µM", "value": 329, "unit": "%"}]}, {"smiles": "Cc1nnc(-c2ccc(Oc3cc(OC4CCN(C)C4=O)cc(C(=O)NC4=NCCS4)c3)cc2)o1", "note": "(stereo not drawn) [Example 6, N-(4,5-Dihydrothiazol-2-yl)-3-(4-(5-methyl-1,3,4-oxadiazol-2-yl)phenoxy)-5-((1-methyl-2-oxopyrrolidin-3-yl)oxy)benzamide]", "values": [{"measurement": "activity at 0.1 µM", "value": 100, "unit": "%"}, {"measurement": "activity at 1 µM", "value": 115, "unit": "%"}, {"measurement": "activity at 5 µM", "value": 190, "unit": "%"}, {"measurement": "activity at 10 µM", "value": 275, "unit": "%"}]}, {"smiles": "Cc1nc(-c2ccc(Oc3cc(OC4CCN(C)C4=O)cc(C(=O)Nc4nccs4)c3)cc2)no1", "note": "(stereo not drawn) [Example 7, 3-(4-(5-Methyl-1,2,4-oxadiazol-3-yl)phenoxy)-5-((1-methyl-2-oxopyrrolidin-3-yl)oxy)-N-(thiazol-2-yl)benzamide]", "values": [{"measurement": "activity at 0.1 µM", "value": 164, "unit": "%"}, {"measurement": "activity at 1 µM", "value": 314, "unit": "%"}, {"measurement": "activity at 5 µM", "value": 356, "unit": "%"}, {"measurement": "activity at 10 µM", "value": 347, "unit": "%"}]}, {"smiles": "Cc1nnc(-c2ccc(Oc3cc(OC4CCN(C)C4=O)cc(C(=O)Nc4nnc(C5CC5)s4)c3)cc2)o1", "note": "(stereo not drawn) [Example 8, N-(5-Cyclopropyl-1,3,4-thiadiazol-2-yl)-3-(4-(5-methyl-1,3,4-oxadiazol-2-yl)phenoxy)-5-((1-methyl-2-oxopyrrolidin-3-yl)oxy)benzamide]", "values": [{"measurement": "activity at 0.1 µM", "value": 134, "unit": "%"}, {"measurement": "activity at 1 µM", "value": 195, "unit": "%"}, {"measurement": "activity at 5 µM", "value": 218, "unit": "%"}, {"measurement": "activity at 10 µM", "value": 235, "unit": "%"}]}, {"smiles": "Cc1nnc(-c2ccc(Oc3cc(OC4CCN(C)C4=O)cc(C(=O)Nc4cnccn4)c3)cc2)o1", "note": "(stereo not drawn) [Example 9, 3-(4-(5-Methyl-1,3,4-oxadiazol-2-yl)phenoxy)-5-((1-methyl-2-oxopyrrolidin-3-yl)oxy)-N-(pyrazin-2-yl)benzamide]", "values": [{"measurement": "activity at 0.1 µM", "value": 168, "unit": "%"}, {"measurement": "activity at 1 µM", "value": 292, "unit": "%"}, {"measurement": "activity at 5 µM", "value": 345, "unit": "%"}, {"measurement": "activity at 10 µM", "value": 346, "unit": "%"}]}, {"smiles": "Cc1nnc(-c2cccc(Oc3cc(OC4CCN(C)C4=O)cc(C(=O)Nc4nccs4)c3)c2)o1", "note": "(stereo not drawn) [Example 10, 3-(3-(5-Methyl-1,3,4-oxadiazol-2-yl)phenoxy)-5-((1-methyl-2-oxopyrrolidin-3-yl)oxy)-N-(thiazol-2-yl)benzamide]", "values": [{"measurement": "activity at 0.1 µM", "value": 130, "unit": "%"}, {"measurement": "activity at 1 µM", "value": 204, "unit": "%"}, {"measurement": "activity at 5 µM", "value": 232, "unit": "%"}, {"measurement": "activity at 10 µM", "value": 228, "unit": "%"}]}, {"smiles": "Cc1nnc(-c2ccc(Oc3cc(OC4CCN(C)C4=O)cc(C(=O)n4c(N)nc5ccccc54)c3)cc2)o1", "note": "(stereo not drawn) [Example 11, 3-(3-(2-Amino-1H-benzo[d]imidazole-1-carbonyl)-5-(4-(5-methyl-1,3,4-oxadiazol-2-yl)phenoxy)phenoxy)-1-methylpyrrolidin-2-one]", "values": [{"measurement": "activity at 0.1 µM", "value": 101, "unit": "%"}, {"measurement": "activity at 1 µM", "value": 109, "unit": "%"}, {"measurement": "activity at 5 µM", "value": 130, "unit": "%"}, {"measurement": "activity at 10 µM", "value": 148, "unit": "%"}]}, {"smiles": "Cc1nnc(-c2ccc(Oc3cc(OC4CCN(C)C4=O)cc(C(=O)Nc4cc(C)n(C(=O)OC(C)(C)C)n4)c3)cc2)o1", "note": "(stereo not drawn) [Example 12, tert-Butyl 5-methyl-3-(3-(4-(5-methyl-1,3,4-oxadiazol-2-yl)phenoxy)-5-((1-methyl-2-oxopyrrolidin-3-yl)oxy)benzamido)-1H-pyrazole-1-carboxylate]", "values": [{"measurement": "activity at 0.1 µM", "value": 107, "unit": "%"}, {"measurement": "activity at 1 µM", "value": 119, "unit": "%"}, {"measurement": "activity at 5 µM", "value": 139, "unit": "%"}, {"measurement": "activity at 10 µM", "value": 150, "unit": "%"}]}, {"smiles": "Cc1nnc(-c2ccc(Oc3cc(OC4CCN(C)C4=O)cc(C(=O)Nc4nc5ccccc5s4)c3)cc2)o1", "note": "(stereo not drawn) [Example 14, N-(Benzo[d]thiazol-2-yl)-3-(4-(5-methyl-1,3,4-oxadiazol-2-yl)phenoxy)-5-((1-methyl-2-oxopyrrolidin-3-yl)oxy)benzamide]", "values": [{"measurement": "activity at 0.1 µM", "value": 271, "unit": "%"}, {"measurement": "activity at 1 µM", "value": 298, "unit": "%"}, {"measurement": "activity at 5 µM", "value": 288, "unit": "%"}, {"measurement": "activity at 10 µM", "value": 267, "unit": "%"}]}]}
